Assay results taken from patent publication US10660903B2, “Orodispersible dosage unit containing an estetrol component” (ESTETRA SPRL, priority 2015, dated 2020).

Assays:
[1] = Randomized, open-label, two-period, cross-over pharmacokinetic study, sublingual versus oral estetrol; assay type: in vivo, human; conditions: 10 mg estetrol; sublingual vs oral; healthy female volunteers
Experimental: A randomized, open-label, two-period, cross-over, pharmacokinetic study is conducted to compare sublingual bioavailability of 10 mg estetrol administered in one 100 mg tablet with oral availability of estetrol contained in a 83 mg tablet containing 10 mg estetrol. These tablets are administered sublingually and orally to healthy female volunteers under fasting conditions.
Ten healthy female subjects are selected on the basis of the following criteria: age of 45-65 years (inclusive), nonsmokers or past smokers (at least 6 months before dosing), body-mass index (BMI)=18.5 to 30 kg/m^2 (inclusive at the time of the screening).
At the start of the first and the second period of the study, between 07:00 am and 07:28 am, 5 subjects receive a single dose of the sublingual formulation of estetrol by administering one estetrol tablet (tablet weight 100 mg; 10 mg estetrol) and 5 subjects receive a single oral dose of the oral estetrol formulation by administering one estetrol tablet (tablet weight 83 mg; 10 mg estetrol), ingested together with 200 ml water. […]
The estetrol concentration in the collected blood samples is determined by means of HPLC/MS/MS. The concentrations of glucuronided estetrol (D-ring) in the urine samples is also determined with the help of HPLC/MS/MS.

[2] = Particle size distribution by laser diffraction (Malvern Mastersizer Microplus); assay type: physicochemical; conditions: milled estetrol used in the tablets
Experimental: The particles size distribution of the estetrol particles, and of other particulate materials used in the present process, may suitably be determined by means of laser diffraction. The particle size distribution of the estetrol particles within the solid dosage unit can suitably be determined using spectroscopic techniques, e.g. Raman mapping.
Particle size distribution of estetrol monohydrate is performed using a MALVERN MASTERS IZER MICROPLUS laser particle size analyzer.
• Weigh 1 g of estetrol monohydrate and 1 g of sorbitan trioleate into a flask. • Add 1 litre of n-hexane and mix for at least 1 hour at room temperature • Filter through a 0.45 μm filter.
• Put 100 mg of sample in a 25 mL beaker. • Add some drops of dispersion medium. • Mix carefully with a glass rod to suspend well the powder. • Add 10 mL of dispersion medium. • Perform the analysis with the sample dispersion unit's speed at 3000-3500 rpm.
Particle size measurements are performed three times using the same dispersion. The final result is obtained by averaging the results of the three determinations.

[3] = humans; cited from earlier work
estrogen receptors = conditions: in vitro; cited from earlier work
[4] = target: T1, sex hormone binding globulin (SHBG) (Homo sapiens, UniProt P04278); conditions: cited from earlier work
T1 sequence (P04278 30-402): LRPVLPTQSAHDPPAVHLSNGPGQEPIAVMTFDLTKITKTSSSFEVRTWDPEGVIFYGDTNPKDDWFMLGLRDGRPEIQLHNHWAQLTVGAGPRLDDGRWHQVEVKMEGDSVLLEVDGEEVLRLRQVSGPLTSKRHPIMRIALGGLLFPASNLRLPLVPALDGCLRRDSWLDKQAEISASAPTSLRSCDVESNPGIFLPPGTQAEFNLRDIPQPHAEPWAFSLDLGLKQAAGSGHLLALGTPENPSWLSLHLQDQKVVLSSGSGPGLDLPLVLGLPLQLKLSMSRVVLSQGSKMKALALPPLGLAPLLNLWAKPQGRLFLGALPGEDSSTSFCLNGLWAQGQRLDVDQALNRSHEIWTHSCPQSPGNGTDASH

production of SHBG = conditions: in vitro; cited from earlier work
[5] = tested on: vagina, uterus, body weight, bone mass, bone strength, hot flushes, ovulation; conditions: rat models; dose-dependent; cited from earlier work
DMBA mammary tumour = conditions: extent and dose level similar to tamoxifen and to ovariectomy; cited from earlier work
[6] = tested on: human breast cancer cells; conditions: in the presence of 17β-estradiol; cited from earlier work

impact on a liver function parameter, sublingual versus oral estetrol [1]: less impact
D (v;0.5) (volume median diameter) [2]: ^1 D (v;0.5) = 15 μm
SMILES: C[C@]12CC[C@@H]3c4ccc(O)cc4CC[C@H]3[C@@H]1[C@@H](O)[C@@H](O)[C@@H]2O [estetrol, 1,3,5 (10)-estratrien-3,15α,16α,17β-tetrol]
oral bioavailability [3]: high and dose-proportional
terminal elimination half-life [3]: about 28 hours
binding to the estrogen receptors, selectivity (estrogen receptors): binds highly selective to the estrogen receptors with preference for the ERa form of the receptor
binding to SHBG [4]: does not bind
stimulation of the production of SHBG (production of SHBG): does not stimulate
estrogenic effects on vagina, uterus, body weight, bone mass, bone strength, hot flushes and ovulation [5]: exhibited estrogenic effects
tumour development (DMBA mammary tumour): prevented tumour development
anti-estrogenic effect [6]: anti-estrogenic effect
